Details: Gas

O [water]
Details | viscosity [mPa·s]
297.39 K, Mass density=0.0402 kg/m3 | 0.009665
297.88 K, Mass density=0.0668 kg/m3 | 0.009654
298.02 K, Mass density=0.0247 kg/m3 | 0.009675
298.08 K, Mass density=0.0368 kg/m3 | 0.009683
298.17 K, Mass density=0.1654 kg/m3 | 0.009693
298.3 K, Mass density=0.0186 kg/m3 | 0.0097
298.38 K, Mass density=0.1081 kg/m3 | 0.009686
298.57 K, Mass density=0.1973 kg/m3 | 0.009684
299.06 K, Mass density=0.0793 kg/m3 | 0.009709
300.07 K, Mass density=0.2351 kg/m3 | 0.009725
310.8 K, Mass density=0.0186 kg/m3 | 0.01013
310.87 K, Mass density=0.0368 kg/m3 | 0.01013
310.96 K, Mass density=0.0668 kg/m3 | 0.01011
311.24 K, Mass density=0.1654 kg/m3 | 0.01014
311.3 K, Mass density=0.0793 kg/m3 | 0.01013
311.39 K, Mass density=0.1081 kg/m3 | 0.01013
311.45 K, Mass density=0.0402 kg/m3 | 0.01015
311.77 K, Mass density=0.0247 kg/m3 | 0.01015
312.25 K, Mass density=0.2351 kg/m3 | 0.01014
313.01 K, Mass density=0.1973 kg/m3 | 0.01017
324.45 K, Mass density=0.0668 kg/m3 | 0.01059
324.54 K, Mass density=0.0247 kg/m3 | 0.0106
324.54 K, Mass density=0.1654 kg/m3 | 0.0106
324.74 K, Mass density=0.2351 kg/m3 | 0.01058
325 K, Mass density=0.0402 kg/m3 | 0.01062
325.15 K, Mass density=0.1973 kg/m3 | 0.01059
325.42 K, Mass density=0.1081 kg/m3 | 0.01062
325.96 K, Mass density=0.0368 kg/m3 | 0.01065
331.18 K, Mass density=0.0186 kg/m3 | 0.01083
331.47 K, Mass density=0.0793 kg/m3 | 0.01084
338.02 K, Mass density=0.1973 kg/m3 | 0.01103
338.38 K, Mass density=0.2351 kg/m3 | 0.01105
338.47 K, Mass density=0.0247 kg/m3 | 0.01108
338.71 K, Mass density=0.0368 kg/m3 | 0.0111
338.79 K, Mass density=0.0793 kg/m3 | 0.01108
338.83 K, Mass density=0.0186 kg/m3 | 0.01111
339.39 K, Mass density=0.0402 kg/m3 | 0.01112
340.17 K, Mass density=0.1081 kg/m3 | 0.01113
341.28 K, Mass density=0.0668 kg/m3 | 0.01117
352.03 K, Mass density=0.1973 kg/m3 | 0.01153
352.05 K, Mass density=0.1654 kg/m3 | 0.01154
352.17 K, Mass density=0.0668 kg/m3 | 0.01156
352.37 K, Mass density=0.2351 kg/m3 | 0.01154
352.75 K, Mass density=0.0186 kg/m3 | 0.0116
352.77 K, Mass density=0.0402 kg/m3 | 0.0116
352.79 K, Mass density=0.0793 kg/m3 | 0.01159
352.91 K, Mass density=0.0247 kg/m3 | 0.0116
353.16 K, Mass density=0.1081 kg/m3 | 0.0116
353.6 K, Mass density=0.0368 kg/m3 | 0.01163
365.86 K, Mass density=0.2351 kg/m3 | 0.01203
366.29 K, Mass density=0.1973 kg/m3 | 0.01205
366.37 K, Mass density=0.0247 kg/m3 | 0.01209
366.48 K, Mass density=0.1654 kg/m3 | 0.01207
366.77 K, Mass density=0.1081 kg/m3 | 0.01209
366.96 K, Mass density=0.0793 kg/m3 | 0.01211
367.03 K, Mass density=0.0402 kg/m3 | 0.01212
367.1 K, Mass density=0.0668 kg/m3 | 0.0121
367.84 K, Mass density=0.0186 kg/m3 | 0.01216
368.22 K, Mass density=0.0368 kg/m3 | 0.01216
380.42 K, Mass density=0.0247 kg/m3 | 0.0126
380.43 K, Mass density=0.1973 kg/m3 | 0.01257
380.59 K, Mass density=0.0668 kg/m3 | 0.01259
380.6 K, Mass density=0.1654 kg/m3 | 0.01258
380.8 K, Mass density=0.0186 kg/m3 | 0.01263
381.09 K, Mass density=0.0402 kg/m3 | 0.01263
381.09 K, Mass density=0.0793 kg/m3 | 0.01263
381.33 K, Mass density=0.1081 kg/m3 | 0.01263
381.7 K, Mass density=0.2351 kg/m3 | 0.01262
382.14 K, Mass density=0.0368 kg/m3 | 0.01268
393.95 K, Mass density=0.1654 kg/m3 | 0.01309
394.29 K, Mass density=0.0668 kg/m3 | 0.0131
394.39 K, Mass density=0.0186 kg/m3 | 0.01314
394.43 K, Mass density=0.1973 kg/m3 | 0.0131
394.48 K, Mass density=0.2351 kg/m3 | 0.01311
394.72 K, Mass density=0.0247 kg/m3 | 0.01313
395 K, Mass density=0.1081 kg/m3 | 0.01314
395.38 K, Mass density=0.0402 kg/m3 | 0.01316
395.87 K, Mass density=0.0793 kg/m3 | 0.01319
396.61 K, Mass density=0.0368 kg/m3 | 0.01322
408.3 K, Mass density=0.1654 kg/m3 | 0.01365
408.32 K, Mass density=0.0668 kg/m3 | 0.01364
408.34 K, Mass density=0.2351 kg/m3 | 0.01365
408.76 K, Mass density=0.1973 kg/m3 | 0.01366
408.87 K, Mass density=0.0186 kg/m3 | 0.01369
409.37 K, Mass density=0.1081 kg/m3 | 0.01369
409.39 K, Mass density=0.0793 kg/m3 | 0.0137
409.46 K, Mass density=0.0402 kg/m3 | 0.01369
409.76 K, Mass density=0.0247 kg/m3 | 0.01371
411.18 K, Mass density=0.0368 kg/m3 | 0.01379
422.56 K, Mass density=0.2351 kg/m3 | 0.01421
422.69 K, Mass density=0.1654 kg/m3 | 0.01422
422.72 K, Mass density=0.0668 kg/m3 | 0.0142
422.75 K, Mass density=0.0247 kg/m3 | 0.01422
422.94 K, Mass density=0.1973 kg/m3 | 0.01422
423.26 K, Mass density=0.0186 kg/m3 | 0.01424
423.44 K, Mass density=0.0793 kg/m3 | 0.01425
423.62 K, Mass density=0.1081 kg/m3 | 0.01425
423.7 K, Mass density=0.0402 kg/m3 | 0.01426
423.8 K, Mass density=0.0368 kg/m3 | 0.01428
437.27 K, Mass density=0.2351 kg/m3 | 0.01482
437.71 K, Mass density=0.1654 kg/m3 | 0.01483
437.84 K, Mass density=0.1973 kg/m3 | 0.01484
438.04 K, Mass density=0.0668 kg/m3 | 0.01481
438.05 K, Mass density=0.1081 kg/m3 | 0.01483
438.48 K, Mass density=0.0368 kg/m3 | 0.01487
438.71 K, Mass density=0.0793 kg/m3 | 0.01486
438.77 K, Mass density=0.0186 kg/m3 | 0.01485
438.99 K, Mass density=0.0402 kg/m3 | 0.01486
440.41 K, Mass density=0.0247 kg/m3 | 0.01492

Reference: the NIST ThermoML archive (doi:10.1021/je050288d)
